Measurements published in the METLIN SMRT retention time set (Domingo-Almenara et al. 2019).

Assay: gradient 5% acetonitrile 3 min, to 50% in 2 min, to 85% in 15 min, held 3 min, 100 µL/min
Settings: column: Zorbax Extend-C18 2.1 x 50 mm; eluents: water / acetonitrile, 0.1% formic acid
Outline: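 Standards, all pure, were combined into mixtures of ~100 molecules and run at 100 μL/min on a Zorbax Extend-C18 column (2.1 × 50 mm, 1.8 μm) with water and acetonitrile, each containing 0.1% formic acid. A coupled quadrupole time-of-flight mass spectrometer operated in positive and negative ionization mode. Retention time values come from computationally picked adduct peaks, each inspected manually.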

Row | RP-LC retention time [s] | Compound
1 | 1300 | CCCc1nc(-c2cc3cccc(C)c3nc2NCCc2ccc(S(N)(=O)=O)cc2)no1
2 | 642 | CC(=O)N1CCc2cc(N3CC(C(=O)NC4CCCC4)CC3=O)ccc21 (stereo not drawn)
3 | 695 | Cn1c(C2CCN(C(=O)Nc3cc(F)cc(F)c3)CC2)cc(=O)n2nccc12
4 | 788 | COC(=O)C1=CN(c2ccc(OC)c(OC)c2)c2ccc(F)cc2S1(=O)=O
5 | 764 | CCC(C(=O)N1CCOCC1)n1c2ccccc2c2cnn(C)c(=O)c21 (stereo not drawn)
6 | 900 | Cc1cc(N2CCC(NC(=O)Nc3ccc(C)c(F)c3)C2=O)ccc1F (stereo not drawn)
7 | 809 | CN(C)C(=O)c1csc(S(=O)(=O)N2CCC(C(=O)N3CCc4ccccc43)CC2)c1
8 | 575 | CCc1cc(N2CCN(C(=O)c3ccc4c(c3)OCO4)CC2)nc2nncn12
9 | 736 | Cn1nc2n(c1=O)CCN(C(=O)C1(c3ccccc3)CCCC1)CC2
10 | 982 | COCC(=O)N(CC(=O)N1CCc2sccc2C1COc1ccc(C)cc1C)CC1CC1 (stereo not drawn)
11 | 986 | CCC(C(=O)NCCc1c[nH]c2ccc(Cl)cc12)n1c2ccccc2c2cnn(C)c(=O)c21 (stereo not drawn)
12 | 912 | CCN1C(=O)c2cccnc2Sc2cc(NC(=O)c3cccc(Cl)c3)ccc21
13 | 681 | CCn1cc(CN2CCC(N3C(=O)C4(CCCCC4)C3c3ccccc3)CC2)cn1 (stereo not drawn)
14 | 641 | Cc1cc(C)n(CC(=O)N2CCC[C@H]2c2nc(-c3ccccc3)n[nH]2)n1
15 | 775 | Cc1ccc(S(=O)(=O)NC2CCN(C(=O)Cc3c[nH]c4ccccc34)CC2)cc1
16 | 720 | Cc1ccc(-n2c(-c3ccc(Cl)cc3)cn3c4c(=O)n(C)c(=O)n(C)c4nc23)cc1C
17 | 593 | Cc1cccc(-c2noc(C3CCCN3C(=O)NCCc3ccccc3)n2)c1 (stereo not drawn)
18 | 675 | NS(=O)(=O)c1ccc(CCNCc2ccc(-c3cccc(Cl)c3)o2)cc1
19 | 854 | CC(=O)Oc1ccc2c(=O)c(Oc3ccc([N+](=O)[O-])cc3)c(C)oc2c1
20 | 609 | CN1C(=O)c2[nH]nc(-c3ccccc3)c2C1c1cccnc1 (stereo not drawn)
21 | 1240 | COc1ccc(-c2csc(Cc3nc(-c4ccc(C)cc4)no3)n2)cc1
22 | 713 | Cc1cc(C)cc(NC(=O)Cn2cnc3nc(N4CCC(C(=O)NC5CC5)CC4)sc3c2=O)c1

Row | RP-LC retention time [s] | Compound
23 | 894 | CN(C)S(=O)(=O)c1ccc(-c2nnc(C(=O)NCc3ccccc3Cl)o2)cc1
24 | 814 | Cc1cc(Cl)ccc1NC(=O)N1CCN(C2=CC3=NCC(C)N3C=N2)CC1 (stereo not drawn)
25 | 1110 | CCN(CC)c1nc2cc(C(=O)OC)ccc2c(=O)n1-c1cccc(OC)c1
26 | 665 | Oc1ccc(Nc2ccnc3cc(Cl)ccc23)cc1
27 | 798 | O=C(Cc1nnc2cc(-c3nc(C4CC4)no3)ccn12)NCc1ccc(Cl)cc1
28 | 1130 | CC1=NS(=O)(=O)N(Cc2ccccc2)C=C1C(=O)OCc1nc(-c2ccccc2Cl)no1
29 | 677 | Cc1nnc(NC(=O)Cc2csc(NC(=O)C3CCCC3)n2)s1
30 | 657 | O=C(NC1CCSC1=O)c1ccc(-n2cccn2)nn1 (stereo not drawn)
31 | 1020 | O=C(Nc1ccccc1)N1CCN(c2nc(-c3ccccc3)ns2)CC1
32 | 779 | Cc1cccc(C(=O)N2CCC3(CC2)NC(=O)c2cc(F)ccc2N3C)c1
33 | 582 | CCN1CCC(CCNC(=O)C2CCc3sc(C(=O)N4CCCC4)cc3C2)CC1 (stereo not drawn)
34 | 984 | O=C1[C@H]2CN(Cc3ccc(C(F)(F)F)cc3)C[C@H]2C(=O)N1CCc1ccccc1
35 | 1210 | COC(=O)c1ccc2c(=O)n(CCc3ccccc3)c(N3CCCC3)nc2c1
36 | 907 | O=C(NC1CCN(Cc2ccccc2)CC1)C1CCCN(c2cnc3nccnc3c2)C1 (stereo not drawn)
37 | 856 | CC(C)C(=O)NC(c1ccc(F)cc1)c1nnc(-c2ccccc2)o1 (stereo not drawn)
38 | 978 | CCSc1nnc(-c2nn(C)c3c2CN(S(=O)(=O)c2ccc(F)c(C)c2)CC3)n1CC
39 | 1180 | COc1cccc(Cn2nc(-c3nc(-c4cccc(Cl)c4)no3)ccc2=O)c1
40 | 682 | O=C(c1cncc(Br)c1)N1CCC(c2nnc(-c3ccco3)s2)CC1
41 | 765 | COCc1nncn1C1CCN(S(=O)(=O)c2ccc(Cl)c(C)c2)CC1
42 | 797 | CC(C)n1cnc2ccc(-c3noc(CCc4ccccc4)n3)cc21
43 | 750 | Cc1ccc(-n2cc3c(N4CCCC(C(=O)NCc5ccc(Cl)cc5)C4)ncnc3n2)cc1 (stereo not drawn)
44 | 740 | Cc1ccc(NC(=O)Cn2c(C(C)C)nc3c(c2=O)CCN(Cc2ccccc2)C3)cc1F

Row | RP-LC retention time [s] | Compound
45 | 576 | CCN1CCN(CCCNC(=O)CCCn2c3ccccc3c3cnn(C)c(=O)c32)CC1
46 | 722 | O=C(CCc1c(-c2ccccc2)nc2ccccn12)Nc1ccc(Br)cc1F
47 | 628 | CN(C)CCNC(=O)c1c(-c2ccccc2)c(-c2ccccc2)nn(C)c1=O
48 | 629 | NC1=NC(c2ccc(Cl)cc2)N(c2ccc(S(N)(=O)=O)cc2)C(N)=N1 (stereo not drawn)
49 | 888 | COC(=O)c1ccsc1NC(=O)Cc1ccc2c(c1)OCO2
50 | 717 | O=C(Nc1nccs1)C1CCN(C(=O)Cc2c(F)cccc2Cl)CC1
51 | 994 | N#Cc1cccc(NC(=O)C2CCN(S(=O)(=O)c3cc(-c4noc(C5CC5)n4)cs3)CC2)c1
52 | 641 | Cn1c(=O)cc(N2CCC[C@@H](N)C2)n(Cc2ccccc2C#N)c1=O
53 | 904 | Cn1c(=O)c(N2CCC(NC(=O)Nc3ccccc3Cl)CC2)nc2cccnc21
54 | 552 | c1cc(-c2nc(CC3CCCNC3)no2)ccn1 (stereo not drawn)
55 | 711 | Cc1ccnc(NS(=O)(=O)c2ccc(NC(=O)C3COc4ccccc4O3)cc2)n1 (stereo not drawn)
56 | 889 | CCOC(=O)c1c(C)n(C)c2ccc(OC(C)=O)cc12
57 | 896 | COc1cc(NC(=O)CSc2ncc(-c3cccc(Cl)c3)o2)cc(OC)c1OC
58 | 863 | CN(CC1(C)CCOCC1)C(=O)Cc1c(F)cccc1Cl
59 | 982 | Cc1cc(C)n(-c2c3c(nc4c(-c5ccccc5)c(C)nn24)CCC3)n1
60 | 1230 | Cc1cccc(OCc2nc(C)c(C(=O)Nc3nc(-c4ccccc4)cs3)s2)c1
61 | 579 | Cc1cnc(C2CC2)n1CCNC(=O)c1cccn1C
62 | 736 | CCCC(=O)NC1CCN(c2ccc(C)c(C)c2)C1=O (stereo not drawn)
63 | 970 | CS(=O)(=O)Nc1cccc(NC(=O)Cn2cccn2)c1
64 | 1030 | CCOC(=O)c1noc2nc(C)nc(NCc3ccc(F)cc3)c12
65 | 974 | Cc1cccc(NC(=O)N2CCc3nc(-c4ccc(F)cc4)ncc3C2)c1C
66 | 802 | O=C(c1ccoc1)N1CCCn2nc(-c3ccc(Cl)cc3)cc2C1

Row | RP-LC retention time [s] | Compound
67 | 945 | CC(C)(Oc1ccc(Cl)cc1)C(=O)NCc1nnnn1C1CCCCC1
68 | 749 | Cc1ccc(-c2noc(-c3ccc(N4CCN(c5cc(C)ccc5C)CC4)nc3)n2)cc1
69 | 869 | CN(C)c1ccc(NS(=O)(=O)c2c(F)c(F)c(F)c(F)c2F)cc1
70 | 678 | COc1ccc(NC(=O)Cn2nc3n(c2=O)CCCCC3)c(OC)c1
71 | 672 | COCc1nc2nccc(-c3ccccc3)n2n1
72 | 812 | Cc1cc2c(cc1S(=O)(=O)N1CCCC1C(=O)NCc1ccccc1Cl)OC(C)C(=O)N2 (stereo not drawn)
73 | 649 | CC(=O)Nc1nsc(N2CCC(C(=O)NCc3ccc(F)cc3)CC2)n1
74 | 1080 | CCCN1C(=O)c2cc(S(=O)(=O)Nc3ccccc3OC)ccc2Oc2cccnc21
75 | 1220 | Fc1cccc(-c2noc(-c3nc(-c4ccc5c(c4)OCO5)no3)n2)c1
76 | 1120 | O=C(c1ccsc1)N1CCc2cc(-c3csc(C4CC4)n3)ccc21
77 | 977 | Cc1cc(C(=O)N2CCCCCC2)nc2cc(-c3cccs3)nn12
78 | 760 | Cc1ccc(Cn2cc(-c3ccncc3)cc2C(=O)Nc2ccc3c(c2)OCO3)cc1
79 | 622 | O=C(NCc1ccccn1)C1CCN(C(=O)c2ncn3c2COC(c2ccc(F)cc2)C3)CC1 (stereo not drawn)
80 | 922 | CCC1Oc2ccc(S(=O)(=O)N3CCC(C(=O)NCc4ccc(F)cc4)CC3)cc2NC1=O (stereo not drawn)
81 | 653 | CCOCCCNC(=O)[C@@H]1[C@H](c2cc(OC)c(OC)c(OC)c2)c2cc3c(cc2[C@H](O)[C@H]1CO)OCO3
82 | 1240 | CCOc1ccc(S(=O)(=O)N2CCC(c3noc(-c4ccc(C)cc4)n3)CC2)cc1
83 | 728 | CCCNC(=O)C1CCCN(c2nc3ncn(CC(=O)Nc4c(C)cc(C)cc4C)c(=O)c3s2)C1 (stereo not drawn)
84 | 815 | COc1ccc(NC(=O)C2(C)Oc3cccnc3N(C)C2=O)c(OC)c1 (stereo not drawn)
85 | 747 | CN1C(=O)c2cc(C(=O)NCc3cccc(F)c3)nn2CC1(C)C(=O)NCc1ccccc1 (stereo not drawn)
86 | 592 | CCn1cnc(S(=O)(=O)N2CCC(C(=O)Nc3ccc(C)cn3)CC2)c1
87 | 1000 | Cc1cccc(-c2noc(Cn3c(=O)n(-c4ccccc4)c(=O)c4sccc43)n2)c1
88 | 581 | O=C(NCCN1CCOCC1)c1ccc(Nc2c(-c3ccccc3)nc3cnccn23)cc1
